Source: paper PMC7284125, “Identification of annotated bioactive molecules that impair motility of the blood fluke Schistosoma mansoni” (International Journal for Parasitology: Drugs and Drug …, 2020)
Read-outs that look alike come from different tables or passages of the source.

Tests used:
[1] = test system: S. mansoni schistosomulae; test: Phenotypic primary screen assay on schistosomulae (phenotype; viability by methylene blue dye exclusion); type: cell-based, Schistosoma mansoni; details: for Phenotype / Viability (%): three-day-old schistosomulae, 10 μM, 24 h; for Phenotype: estimated 5 days post compound exposure; for Viability (%): calculated 5 days post compound exposure
Experimental: Puerto Rican strain Biomphalaria glabrata snails infected with S. mansoni were kindly provided by Dr. Fred Lewis (Biomedical Research Institute and BEI Resources, MD, USA). Schistosomulae were obtained by exposing six to eight weeks-old snails to continuous light for 2 h at 32 °C. […] At this point, animals with internal dark granulations and with no observable body contraction/relaxation cycles were considered dead.
Schistosomulae were monitored under a stereo microscope (SMZ1270, Nikon). Phenotypic observations were made by analyzing schistosomulae, 24 h after drug addition to assess any immediate effect and five days post-compound exposure to observe long-term impacts on both the movement and overall body shape in comparison to control animals exposed to DMSO only.

[2] = test system: S. mansoni schistosomulae; test: Motility assay on schistosomulae (pixel displacement, relative to DMSO control); type: cell-based, Schistosoma mansoni; details: for activity at 1 µM: Schistosoma mansoni, read-out: Fractional motility
Experimental: Puerto Rican strain Biomphalaria glabrata snails infected with S. mansoni were kindly provided by Dr. Fred Lewis (Biomedical Research Institute and BEI Resources, MD, USA). Schistosomulae were obtained by exposing six to eight weeks-old snails to continuous light for 2 h at 32 °C. The resulting suspension of cercaria was then mechanically transformed as described ([Lewis, 2001]) and cultured in Opti-MEM/antibiotics (Thermo Fisher Scientific, Waltham, MA) containing 100 μg/mL streptomycin and 100 units/ml penicillin supplemented with 5% fetal bovine serum (FBS; Thermo Fisher). Parasite cultures were incubated at 37 °C with 5% CO2 for at least 10 days with no apparent loss of viability. At this point, animals with internal dark granulations and with no observable body contraction/relaxation cycles were considered dead.
(§1) Schistosomulae (200/well) and adult parasites (unpaired worms) were maintained in 300 μL OPTI-MEM with 5% dialyzed FBS (without antibiotics) and exposed to compounds at 1 and 10 μM for 24 h. A kinetic assay consisting of 1, 3, 6 and 12 h incubation times was performed on selected hits by motility monitoring using a stereo microscope (SMZ1270, Nikon) for adults and an inverted microscope for schistosomulae (eclipse TE2000-U, Nikon) connected to a monochrome camera (DS-Qi2, Nikon) for image acquisition. Images were recorded at a rate of 10 frames/s for a period of 1 min and videos were analyzed using ImageJ software (version 1.41, NIH, USA). Parasite movement quantification and data analysis protocols were applied using the pixel displacement method ([Patocka et al., 2014]; [Rashid et al., 2015]) and compared to control parasites treated with DMSO. Parasites were then washed several times in Opti-MEM, 5% FBS and incubated up to an additional three days (schistosomulae) or five days (adult worms) at 37 °C, 5% CO2 and motility was recorded as described above.

S. mansoni adult worms = test: Motility assay on adult parasites (pixel displacement, relative to DMSO control); type: cell-based, Schistosoma mansoni; details: for motility phenotype in words: adults
Experimental: Adult parasites were collected from 40 day-old female CD1 mice (Charles River) previously inoculated by the tail infection method ([Lewis, 2001]). Six weeks post-infection, mice were sacrificed, and adult worms extracted after perfusion of in the hepatic portal vein and mesenteric venules ([Lewis, 2001]). Animal procedures were reviewed and approved by the Facility Animal Care Committee of McGill University (Protocol No. 3346) and were conducted in accordance with the guidelines of the Canadian Council on Animal Care.
as §1

[3] = test system: S. mansoni schistosomulae; test: Phenotypic primary screen assay on schistosomulae (phenotype; viability by methylene blue dye exclusion); type: cell-based; details: Schistosoma mansoni; three-day-old schistosomulae, 10 μM, 24 h; calculated 5 days post compound exposure; read-out: Viability (%)
[4] = schistosomulae, 1h exposure, read at D1, 10 µM
[5] = schistosomulae, 1h exposure, read at D5, 10 µM
[6] = schistosomulae, 3h exposure, read at D1, 10 µM
[7] = schistosomulae, 3h exposure, read at D5, 10 µM
[8] = schistosomulae, 6h exposure, read at D1, 10 µM
[9] = schistosomulae, 6h exposure, read at D5, 10 µM
[10] = schistosomulae, secondary screen, 24h exposure, read at D1, 1 µM
[11] = schistosomulae, secondary screen, 24h exposure, read at D1, 10 µM
[12] = schistosomulae, secondary screen, 24h exposure, read at D5, 1 µM
[13] = schistosomulae, secondary screen, 24h exposure, read at D5, 10 µM
[14] = secondary screen, 10 μM, D1, Female adult worms
[15] = secondary screen, 10 μM, D1, Male adult worms
[16] = secondary screen, 10 μM, D5, Female adult worms
[17] = secondary screen, 10 μM, D5, Male adult worms
[18] = 120 h, schistosomulae, secondary screen, 24h exposure, read at D5, 1 µM

Row | Compound | Fractional motility [2, 10] | Fractional motility [2, 11] | Fractional motility [2, 12] | Fractional motility [2, 13] | Fractional motility (S. mansoni adult worms; [14]) | Fractional motility (S. mansoni adult worms; [15]) | Fractional motility (S. mansoni adult worms; [16]) | Fractional motility (S. mansoni adult worms; [17]) | Phenotype [1] | Fractional motility [2, 4] | Fractional motility [2, 5] | Fractional motility [2, 6] | Fractional motility [2, 7] | Fractional motility [2, 8] | Fractional motility [2, 9] | viability at 10 µM [3] [%] | activity at 1 µM [2, 18] [%] | activity at 1 µM [2, 10] [%] | Viability (%) [1] | further results
1 | COC(=O)C1=CCCN(C)C1 [Arecoline] | -0.93 | -0.93 | 1.22 | 1.49 | -0.92 | -0.79 | -0.72 | -0.0374 | round body, blebbing | -0.93 | -0.87 | -0.70 | -0.72 | -0.86 | -0.49 | 96.5 |  |  |  | Fractional motility ([2]; Arecoline and analogs, 24h, D1, 10 µM): -0.93; Fractional motility ([2]; Arecoline and analogs, 24h, D5, 10 µM): 1.49; activity at 1 µM ([2]; 120 h, Arecoline and analogs, 24h, D5, 1 µM): 122%; activity at 1 µM ([2]; Arecoline and analogs, 24h, D1, 1 µM): -93%; motility phenotype in words ([2]; schistosomulae, after 24 h exposure): short term, pronounced paralysis; Fractional motility (S. mansoni adult worms; Arecoline and analogs, 10 μM, D1, Female adult worms): -0.92; Fractional motility (S. mansoni adult worms; Arecoline and analogs, 10 μM, D1, Male adult worms): -0.79; Fractional motility (S. mansoni adult worms; Arecoline and analogs, 10 μM, D5, Female adult worms): -0.72; Fractional motility (S. mansoni adult worms; Arecoline and analogs, 10 μM, D5, Male adult worms): -0.0374; motility phenotype in words (S. mansoni adult worms; after 24 h exposure): nearly complete paralysis
2 | COc1ccc2cc1Oc1ccc(cc1)C[C@H]1c3cc(c(OC)cc3CCN1C)Oc1c(OC)c(OC)cc3c1[C@H](C2)N(C)CC3 [Tetrandrine] |  | -0.39 |  | -0.87 | -0.51 | -0.37 | -0.97 | -0.61 | big, granulated |  |  |  |  |  |  | 89 | -31 | -9 |  | motility phenotype in words (S. mansoni adult worms; 10 μM, long-term after washout): strongly impaired movement
3 | CC(C(O)c1ccc(O)cc1)N1CCC(Cc2ccccc2)CC1 (centres unmarked) [Ifenprodil] |  | 0.47 |  | -0.10 | 1.05 | 1.73 | -0.36 | -0.44 | abnormal morphology, granulated |  |  |  |  |  |  | 98.5 | 11 | 81 |  | 
4 | C=CC(=O)Nc1cc(Nc2nccc(-c3cn(C)c4ccccc34)n2)c(OC)cc1N(C)CCN(C)C [AZD9291] |  | 7.13 |  | -0.73 | -0.59 | 0.48 | -0.14 | -0.20 | dark, granulated, some blebbing | 0.30 | -0.42 | 1.06 | -0.33 | -0.37 | 0.0374 | 39.5 | 134 | 89 |  | 
5 | CN(C)CCC=C1c2ccccc2CCc2ccccc21 [Amitriptyline] |  | 5.01 |  | 0.60 | 0.24 | 1.53 | 0.30 | 0.03 | elongated, granulated, blebbing |  |  |  |  |  |  | 90 | -4 | 286 |  | 
6 | c1ccc(CNc2nc(NCc3ccccc3)c3ccccc3n2)cc1 [DBeQ] | 7.69 | 6.82 | -0.29 | 4.98 | 0.29 | 0.29 | -0.91 | -0.65 | dark, granulated | -0.96 | -0.93 | 1.19 | -0.88 | 0.41 | -0.13 |  |  |  | 15,5% | motility phenotype in words (S. mansoni adult worms; 10 μM, long-term after washout): severely paralyzed adults
7 | CC(=O)c1cc([N+](=O)[O-])c(Sc2ccc(F)cc2F)s1 [P22077] | -0.36 | 2.27 | -0.61 | -0.98 | -0.33 | -0.12 | -0.88 | -0.79 | dark, granulated | 0.71 | 0.10 | 3.24 | -0.09 | 10.22 | -0.30 |  |  |  | 5% | motility phenotype in words (S. mansoni adult worms; 10 μM, long-term after washout): severely paralyzed adults
8 | CCn1c2ccccc2c2cc(Nc3ccnc(NCCCN4CCOCC4)n3)ccc21 [EHop-016] | 3.03 | 0.07 | 0.99 | -0.94 | 0.25 | 0.85 | -0.62 | -0.29 | big, dark |  |  |  |  |  |  |  |  |  | 80% | 
9 | NS(=O)(=O)C#Cc1ccccc1 [Pifithrin-μ] | 1.37 | 2.61 | -0.80 | -1.00 | -0.0347 | -0.36 | -0.90 | -0.23 | big , dark, granulated |  |  |  |  |  |  |  |  |  | 0% | 
10 | Cc1nc(C#Cc2ccnc(Cl)c2)c(C)n1-c1ccc(OC(F)(F)F)cc1 [CTEP] | 0.25 | 1.01 | 0.27 | 0.27 | -0.44 | -0.49 | -0.35 | -0.57 | big, granulated, blebbing |  |  |  |  |  |  |  |  |  | 99% | 

Now from value to compound, other results behind:

Row | Fractional motility [2, 10] | Fractional motility [2, 11] | Fractional motility [2, 12] | Fractional motility [2, 13] | Fractional motility (S. mansoni adult worms; [14]) | Fractional motility (S. mansoni adult worms; [15]) | Fractional motility (S. mansoni adult worms; [16]) | Fractional motility (S. mansoni adult worms; [17]) | Compound | Phenotype [1] | Fractional motility [2, 4] | Fractional motility [2, 5] | Fractional motility [2, 6] | Fractional motility [2, 7] | Fractional motility [2, 8] | Fractional motility [2, 9] | viability at 10 µM [3] [%] | activity at 1 µM [2, 18] [%] | activity at 1 µM [2, 10] [%] | Viability (%) [1] | further results
11 | 20.54 | -1.00 | 0.36 | -1.00 | 3.42 | 2.50 | 0.62 | 1.34 | O=C(Nc1ccccc1-c1cn2c(CN3CCNCC3)csc2n1)c1cnc2ccccc2n1 [SRT1720] | dark, granulated |  |  |  |  |  |  |  |  |  | 0% | effect on viability of schistosomulae in words ([1]; 24 h incubation, five days): lethal
12 | 1.64 | 3.41 | -0.50 | -0.80 | -0.30 | 4.15 | -0.50 | 0.98 | O=C(/C=C/c1ccc2ccccc2n1)c1ccncc1 [PFK15] | dark, granulated |  |  |  |  |  |  |  |  |  | 63% | 
